BindingDB's records for doi:10.1016/j.bmcl.2013.03.030 (Panthera Biopharma, 2013)

Target: Botulinum neurotoxin type A (Clostridium botulinum, UniProt P0DPI0)
Assay: Inhibition of Clostridium botulinum BoNT/A light chain (1 to 429 amino acid) using Abz-Thr-dArg-Ile-Asp-Glu-Ala-Asn-Gln-Arg-Ala-Thr-Lys-Nle-Lys(Dnp)-NH2 as substrate after 10 mins by FRET assay

Sequence of Botulinum neurotoxin type A (P0DPI0 2-448 limits assumed): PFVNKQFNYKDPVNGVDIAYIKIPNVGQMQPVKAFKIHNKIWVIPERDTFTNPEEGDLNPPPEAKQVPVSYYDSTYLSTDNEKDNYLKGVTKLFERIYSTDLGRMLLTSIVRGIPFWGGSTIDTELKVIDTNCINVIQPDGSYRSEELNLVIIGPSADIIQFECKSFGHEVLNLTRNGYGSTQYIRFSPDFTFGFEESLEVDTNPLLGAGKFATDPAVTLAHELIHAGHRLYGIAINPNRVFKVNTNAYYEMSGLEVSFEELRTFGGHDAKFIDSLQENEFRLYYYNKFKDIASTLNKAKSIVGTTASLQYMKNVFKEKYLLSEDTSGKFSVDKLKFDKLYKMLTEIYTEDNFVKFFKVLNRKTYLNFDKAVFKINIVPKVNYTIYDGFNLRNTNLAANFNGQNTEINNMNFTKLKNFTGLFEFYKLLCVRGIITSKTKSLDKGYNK

## O=C(Cc1sc(N2CCCC2)nc1O)NO
  Ki: > 300 µM
